Laboratory results reported in US20220324809A1, “ATP-REGULATED POTASSIUM CHANNEL OPENERS AND USES THEREOF” (SALZMAN GROUP LTD., priority 2019, published 2022).

Assays:
Format in all cases: in vivo, Sprague-Dawley rats
[1] = test system: MCT-induced PH; assay: Single IV administration of R-1703 in rat treatment model of MCT-induced PH (acute and sustained effect)
Source text: An established rat model for PH utilizes monocrotaline (MCT), a toxin derived from plants of the Crotalaria species, which causes pulmonary arterial endothelial cell injury and subsequent pulmonary artery smooth muscle hypertrophy. This model serves as a tool for assessing an immediate vasorelaxation effect by monitoring real-time right ventricular pressure in rats with PAH (late intervention regimen), as well as assessment of efficacy in a prevention of vascular remodeling progression (early intervention regimen). In the latter mode, weight ratios of left and right ventricles and histopathological assessment of right ventricular hypertrophy are used to evaluate the extent of fibrosis. R-1703 is effective in acutely treating a rodent model of MCT-induced PH. Sprague-Dawley rats (n=3 per group) were treated with a single subcutaneous (SC) injection of MCT with 60 mg/kg or an equivalent volume of saline (2 mL/kg). After a post-MCT period of 28 days wherein rats developed severe and stable PH, rats were anesthetized and endotracheally intubated, followed by a single intravenous (IV) administration of R-1703 (15, 30, 60, and 90 μg/kg, in PBS) via the tail vein. Vehicle controls received an equivalent volume of PBS. MCT induced a large increase in MPAP (from 25 to 50 mmHg). […] The experiments shown below have been repeated three times and are reproducible.

[2] = test system: MCT-induced PH; assay: Intratracheal aerosolized R-1703 in rat treatment model of MCT-induced PH: acute effect
Protocol: Intratracheal (IT) aerosolized R-1703 is effective in a rodent treatment model of MCT-induced PH: Acute effect. 28 days after injection of MCT (60 mg/kg SC) and development of severe and stable PH, mechanically ventilated and anaesthetized Sprague-Dawley rats were dosed IT with aerosolized solution (2.0 mL) containing 500 or 5000 ng/mL of R-1703 in PBS. Vehicle controls received an equivalent volume of PBS. MCT induced a large increase in MPAP.

[3] = test system: MCT-induced PH; assay: Intratracheal aerosolized R-1703 in rat treatment model of MCT-induced PH: sustained effect
Protocol: Intratracheal aerosolized R-1703 is effective in a rodent treatment model of MCT-induced PH: Sustained effect. 28 days after injection of MCT (60 mg/kg SC) and development of severe and stable PH, mechanically ventilated and anaesthetized Sprague-Dawley rats were dosed IT with aerosolized solution (2.0 mL) delivering 0.6, 6.0, or 30 micrograms per kg of R-1703 in PBS. Vehicle controls received an equivalent volume of PBS. MCT induced a large increase in MPAP.

[4] = test system: MCT-induced PH; assay: Prophylactic daily IP R-1703 in rat model of MCT-induced PH; conditions: 50 micrograms per kg IP daily, measured 28 days post-MCT, p<0.001, FIG. 4
Protocol: Sprague-Dawley rats (n=3 per group) were treated with a single SC injection of MCT with 60 mg/kg or an equivalent volume of saline (2 mL/kg). Rats were then treated daily with 50 micrograms per kg of R-1703 by an intraperitoneal (IP) route of administration. After a post-MCT period of 28 days wherein vehicle control treated rats develop severe and stable PH, rats were anesthetized and endotracheally intubated.

[5] = IT aerosol 0.6, 6.0 or 30 micrograms per kg

CCC(C)(C)N/C(=N\C#N)Nc1cncc(C(=O)NCCO)c1 [R-1703]
effect on heart rate ([1]; IV 15-90 μg/kg): no effect | effect on peripheral blood pressure ([1]; IV 15-90 μg/kg): no effect | persistence of effect on MPAP post dose ([1]; IV, FIG. 1B): at least 24 h | persistence of effect on MPAP after administration ([1]; IV, FIG. 1B legend): at least 24 hours | effect on MCT-induced elevation in MPAP ([1]; single IV 15, 30, 60, 90 μg/kg in PBS, 28 days post-MCT): dose-dependently reduced the MCT-induced elevation in MPAP | restoration of normal pressures (MPAP) ([1]; single IV dose 90 μg/kg, 28 days post-MCT, p<0.000005, FIG. 1A): 100% | effect on heart rate ([2]; IT aerosol 500 or 5000 ng/mL): no effect | effect on peripheral blood pressure ([2]; IT aerosol 500 or 5000 ng/mL): no effect | effect on MCT-induced elevation in MPAP ([2]; IT aerosolized solution 2.0 mL, 500 or 5000 ng/mL, acute effect, p<0.001, FIG. 2): dose-dependently reduced the MCT-induced elevation in MPAP | effect on heart rate [3, 5]: no effect | effect on peripheral blood pressure [3, 5]: no effect | effect on MCT-induced elevation in MPAP ([3]; IT aerosol delivering 0.6, 6.0 or 30 micrograms per kg, sustained effect, p<0.001, FIG. 3): dose-dependently reduced the MCT-induced elevation in MPAP | restoration of normal pressures (MPAP) [4]: 80%
